Reference: patent publication US8519128B2, “Pyripyropene derivatives having an ACAT2-inhibiting activity” (The Kitasato Institute, priority 2007, dated 2013)
Where two headings read alike, the source gives them in different places.

Target: T1, ACAT 2 (Mus musculus, UniProt O88908)
T1 construct: The source of ACAT 2 enzyme used was a membrane fraction derived from mouse liver microsome; from tissue; host or cells: mouse liver (microsome fraction)
T1 sequence (O88908 1-525): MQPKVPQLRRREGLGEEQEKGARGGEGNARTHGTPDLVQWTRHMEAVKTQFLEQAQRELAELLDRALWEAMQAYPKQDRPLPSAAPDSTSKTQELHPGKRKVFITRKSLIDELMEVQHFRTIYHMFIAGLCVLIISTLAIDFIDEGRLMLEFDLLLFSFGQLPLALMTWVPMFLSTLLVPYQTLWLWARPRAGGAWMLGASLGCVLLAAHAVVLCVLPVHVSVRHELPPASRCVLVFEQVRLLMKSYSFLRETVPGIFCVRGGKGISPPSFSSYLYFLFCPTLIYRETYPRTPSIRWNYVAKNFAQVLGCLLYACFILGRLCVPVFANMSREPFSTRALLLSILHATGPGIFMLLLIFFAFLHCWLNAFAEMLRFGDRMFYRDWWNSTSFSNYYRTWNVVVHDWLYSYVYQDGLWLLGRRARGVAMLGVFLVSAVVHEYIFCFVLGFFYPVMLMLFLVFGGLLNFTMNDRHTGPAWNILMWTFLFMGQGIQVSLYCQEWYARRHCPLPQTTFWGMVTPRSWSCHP
Assay: ACAT-inhibiting activity, mouse liver microsome membrane fraction, [14C]oleoyl-CoA
Type: biochemical
Conditions: for Specific activity: (inhibitory activity of test compound)/(inhibitory activity of pyripyropene A): relative to pyripyropene A
Summary of the method: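 Enzyme source: mouse liver microsomal membrane fraction (100000×g pellet) at 5 mg/ml protein in 50 mM Tris-HCl pH 7.8, 1 mM EDTA, 1 mM PMSF; substrate [14C]oleoyl-CoA. Chloroform-extracted lipids resolved by silica TLC in hexane/diethyl ether/acetic acid (70:30:1).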

[1] = mouse liver microsome, 5 minutes at 37° C.

Structure (SMILES) | Specific activity: (inhibitory activity of test compound)/(inhibitory activity of pyripyropene A) | IC50 [1] | IC50
CC(=O)OCC1(C)C2C[C@H](OC(=O)Cn3cnnn3)[C@@]3(C)Oc4cc(-c5cccnc5)oc(=O)c4[C@H](O)C3[C@@]2(C)CC[C@@H]1OC(C)=O (stereo partly shown) [PRD 092, 7-O-2-(1H-tetrazol-1-yl)acetyl-7-deacetylpyripyropene A] | + (5 > specific activity > 1) | – | 0.1 to 1 µM
CC(=O)OCC1(C)C2C[C@H](OC(=O)CCN3CCCCC3)[C@@]3(C)Oc4cc(-c5cccnc5)oc(=O)c4[C@H](O)C3[C@@]2(C)CC[C@@H]1OC(C)=O (stereo partly shown) [PRD 095, 7-O-3-(pyperidin-1-yl)propionyl-7-deacetylpyripyropene A] | + (5 > specific activity > 1) | 0.1 to 1 µM | –
CC(=O)OCC1(C)C2C[C@H](OC(=O)c3cnccn3)[C@@]3(C)Oc4cc(-c5cccnc5)oc(=O)c4[C@H](O)C3[C@@]2(C)CC[C@@H]1OC(C)=O (stereo partly shown) [PRD 096, 7-O-pyrazinecarboxyl-7-deacetylpyripyropene A] | + (5 > specific activity > 1) | 0.1 to 1 µM | –
CC(=O)OCC1(C)C2C[C@H](OC(=O)Cc3nnn[nH]3)[C@@]3(C)Oc4cc(-c5cccnc5)oc(=O)c4[C@H](O)C3[C@@]2(C)CC[C@@H]1OC(C)=O (stereo partly shown) [PRD 102, 7-O-(1H-tetrazol-5-yl)acetyl-7-deacetylpyripyropene A] | + (5 > specific activity > 1) | 0.1 to 1 µM | –
CC(=O)OCC1(C)C2C[C@H](OC(=O)CCN3CCN(C)CC3)[C@@]3(C)Oc4cc(-c5cccnc5)oc(=O)c4[C@H](O)C3[C@@]2(C)CC[C@@H]1OC(C)=O (stereo partly shown) [PRD 104, 7-O-3-(4-methylpiperazin-1-yl)propionyl-7-deacetylpyripyropene A] | + (5 > specific activity > 1) | 0.1 to 1 µM | –
COCOCC(=O)O[C@H]1CC2C(C)(COC(C)=O)[C@@H](OC(C)=O)CC[C@]2(C)C2[C@@H](O)c3c(cc(-c4cccnc4)oc3=O)O[C@@]21C (stereo partly shown) [PRD 106, 7-O-methoxymethoxyacetyl-7-deacetylpyripyropene A] | + (5 > specific activity > 1) | – | 0.1 to 1 µM

The next lines start with results.

Specific activity: (inhibitory activity of test compound)/(inhibitory activity of pyripyropene A) | IC50 [1] | Structure (SMILES) | IC50
+ (5 > specific activity > 1) | 0.1 to 1 µM | CC(=O)OCC1(C)C2C[C@H](OC(=O)CCCCO)[C@@]3(C)Oc4cc(-c5cccnc5)oc(=O)c4[C@H](O)C3[C@@]2(C)CC[C@@H]1OC(C)=O (stereo partly shown) [PRD 093, 7-O-5-hydroxypentanoyl-7-deacetylpyripyropene A] | –
+ (5 > specific activity > 1) | 0.1 to 1 µM | CC(=O)OCC1(C)C2C[C@H](OC(=O)c3ccc(=O)oc3)[C@@]3(C)Oc4cc(-c5cccnc5)oc(=O)c4[C@H](O)C3[C@@]2(C)CC[C@@H]1OC(C)=O (stereo partly shown) [PRD 098, 7-O-2-pyrone-5-carboxyl-7-deacetylpyripyropene A] | –
+++ (50 > specific activity > 10) | < 0.01 µM | CC(=O)OCC1(C)C2C[C@H](OC(=O)CCc3ccccc3)[C@@]3(C)Oc4cc(-c5cccnc5)oc(=O)c4[C@H](O)C3[C@@]2(C)CC[C@@H]1OC(C)=O (stereo partly shown) [PRD 100, 7-O-3-phenylpropionyl-7-deacetylpyripyropene A] | –
+++ (50 > specific activity > 10) | < 0.01 µM | COc1ccc(CCCC(=O)O[C@H]2CC3C(C)(COC(C)=O)[C@@H](OC(C)=O)CC[C@]3(C)C3[C@@H](O)c4c(cc(-c5cccnc5)oc4=O)O[C@@]32C)cc1 (stereo partly shown) [PRD 103, 7-O-4-(4-methoxyphenyl)butytyl-7-deacetylpyripyropene A] | –
+++ (50 > specific activity > 10) | < 0.01 µM | CC(=O)OCC1(C)C2C[C@H](OC(=O)c3ccc(Br)c(F)c3)[C@@]3(C)Oc4cc(-c5cccnc5)oc(=O)c4[C@H](O)C3[C@@]2(C)CC[C@@H]1OC(C)=O (stereo partly shown) [PRD 105, 7-O-p-bromo-m-fluorobenzoyl-7-deacetylpyripyropene A] | –
